{"source": "patent US20240182503A1", "about": "“MACROCYCLE COMPLEMENT FACTOR B INHIBITORS” (priority 2021, published 2024)", "key": {"[1]": {"details": "rcm bond, DCM"}, "CVF-Bb complex": {"target": "CVF-Bb complex (Homo sapiens (Human), UniProt P00751)", "test": "biochemical", "type": "biochemical", "method": "CVF-Bb complex, prepared from purified cobra venom factor, (3 nM) is incubated with a compound of the disclosure at various concentrations for 10 minutes at room temperature in PBS (pH 7.4) containing 10 mM MgCl2 and 0.05% (w/v) CHAPS. Human Complement C3 substrate is added to a final concentration of 1 μM. After 1 hour incubation at room temperature, the enzyme reaction is stopped by addition of a cocktail of concentrated pan-protease inhibitors. The product of the reaction, C3a, is quantified by means of an enzyme-linked-immunosorbent assay and/or denaturing gel electrophoresis (SDS-PAGE). IC50 values are calculated from percentage of inhibition of CVF-Bb activity as a function of test compound concentration."}}, "note": "Read-outs that look alike come from different tables or passages of the source."}
{"smiles": "COC(=O)c1ccc2c3cc(ccc13)OCC=CCO[C@H]1CCN(C(=O)OC(C)(C)C)[C@H]2C1", "values": [{"measurement": "ring closure, isolated yield", "setting": "[1]; from C=CCOc1ccc2c(C(=O)OC)ccc([C@@H]3C[C@@H](OCC=C)CCN3C(=O)OC(C)(C)C)c2c1, 13-membered ring, Grubbs I, 2.1 mM, 25.0 °C, 18.0 h", "result": 67.1, "unit": "%"}]}
{"smiles": "CC(C)(C)OC(=O)N1CCC2(O)CC=CCCCCOc3cc(Br)ccc3[C@@H]1C2", "values": [{"measurement": "ring closure, isolated yield", "setting": "[1]; from C=CCCCCOc1cc(Br)ccc1[C@@H]1CC(O)(CC=C)CCN1C(=O)OC(C)(C)C, 13-membered ring, Grubbs I, 2.5 mM, 25.0 °C, 48.0 h", "result": 65.9, "unit": "%"}]}
{"smiles": "COC(=O)c1ccc2c3cc(ccc13)OCCCC=CCO[C@@H]1CCN(C(=O)OC(C)(C)C)[C@@H]2C1", "values": [{"measurement": "ring closure, isolated yield", "setting": "[1]; from C=CCCCOc1ccc2c(C(=O)OC)ccc([C@H]3C[C@H](OCC=C)CCN3C(=O)OC(C)(C)C)c2c1, 15-membered ring, Grubbs I, 1.96 mM, 25.0 °C, 18.0 h", "result": 74, "unit": "%"}]}
{"smiles": "COC(=O)c1ccc2c3cc(ccc13)OCCCC=CCO[C@H]1CCN(C(=O)OC(C)(C)C)[C@H]2C1", "values": [{"measurement": "ring closure, isolated yield", "setting": "[1]; from C=CCCCOc1ccc2c(C(=O)OC)ccc([C@@H]3C[C@@H](OCC=C)CCN3C(=O)OC(C)(C)C)c2c1, 15-membered ring, Grubbs I, 1.95 mM, 25.0 °C, 18.0 h", "result": 75.3, "unit": "%"}, {"measurement": "ring closure, isolated yield", "setting": "[1]; from C=CCCCOc1ccc2c(C(=O)OC)ccc([C@@H]3C[C@@H](OCC=C)CCN3C(=O)OC(C)(C)C)c2c1, 15-membered ring, Grubbs I, 2.0 mM, 25.0 °C, 18.0 h", "result": 22.7, "unit": "%"}]}
{"smiles": "COC(=O)c1ccc2c3cc(ccc13)OCCC=CCO[C@H]1CCN(C(=O)OC(C)(C)C)[C@H]2C1", "values": [{"measurement": "ring closure, isolated yield", "setting": "[1]; from C=CCCOc1ccc2c(C(=O)OC)ccc([C@@H]3C[C@@H](OCC=C)CCN3C(=O)OC(C)(C)C)c2c1, 14-membered ring, Grubbs I, 3.2 mM, 16.0 h", "result": 33.4, "unit": "%"}]}
{"smiles": "COC(=O)c1ccc2c(c1)OCCC=CCO[C@H]1CCN(C(=O)OC(C)(C)C)[C@H]2C1", "values": [{"measurement": "ring closure, isolated yield", "setting": "[1]; from C=CCCOc1cc(C(=O)OC)ccc1[C@@H]1C[C@@H](OCC=C)CCN1C(=O)OC(C)(C)C, 12-membered ring, Grubbs I (20 mol%), 2.22 mM, 25.0 °C, 18.0 h", "result": 61.9, "unit": "%"}]}
{"smiles": "COC(=O)c1ccc2c(c1)OCCCCC=CCO[C@H]1CCN(C(=O)OC(C)(C)C)[C@H]2C1", "values": [{"measurement": "ring closure, isolated yield", "setting": "[1]; from C=CCCCCOc1cc(C(=O)OC)ccc1[C@@H]1C[C@@H](OCC=C)CCN1C(=O)OC(C)(C)C, 14-membered ring, Grubbs I (20 mol%), 2.15 mM, 25.0 °C, 18.0 h", "result": 72.4, "unit": "%"}, {"measurement": "ring closure, isolated yield", "setting": "[1]; from C=CCCCCOc1cc(C(=O)OC)ccc1[C@@H]1C[C@@H](OCC=C)CCN1C(=O)OC(C)(C)C, 14-membered ring, Grubbs I (20 mol%), 2.17 mM, 25.0 °C, 18.0 h", "result": 83.2, "unit": "%"}]}
{"smiles": "COC(=O)c1ccc2c(c1)OCCCC=CCO[C@H]1CCN(C(=O)OC(C)(C)C)[C@H]2C1", "values": [{"measurement": "ring closure, isolated yield", "setting": "[1]; from C=CCCCOc1cc(C(=O)OC)ccc1[C@@H]1C[C@@H](OCC=C)CCN1C(=O)OC(C)(C)C, 13-membered ring, Grubbs I (20 mol%), 2.22 mM, 25.0 °C, 18.0 h", "result": 68.8, "unit": "%"}]}
{"smiles": "COc1cc(C)c2[nH]ccc2c1CN1CC[C@H]2C[C@H]1c1ccc(C(=O)NS(=O)(=O)C(C)C)cc1OCCCCCO2", "note": "[Ex. 66, (1^2S,1^4S)—N-(isopropylsulfonyl)-1^1-((5-methoxy-7-methyl-1H-indol-4-yl)methyl)-3,9-dioxa-1(2,4)-piperidina-2(1,2)-benzenacyclononaphane-2^4-carboxamide]", "values": [{"measurement": "IC50", "setting": "CVF-Bb complex; read-out: IC50", "result": 411, "unit": "nM"}]}
{"smiles": "COc1cc(C)c2[nH]ccc2c1CN1CC[C@H]2C[C@H]1c1ccc(C(=O)O)c3ccc(cc13)OC/C=C\\CO2", "note": "[Ex. 75, (1^2S,1^4S,Z)-1′-((5-methoxy-7-methyl-1H-indol-4-yl)methyl)-3,8-dioxa-1(2,4)-piperidina-2(1,7)-naphthalenacyclooctaphan-5-ene-2^4-carboxylic acid]", "values": [{"measurement": "IC50", "setting": "CVF-Bb complex; read-out: IC50", "result": 352, "unit": "nM"}]}
{"smiles": "COc1cc(C)c2[nH]ccc2c1CN1CC[C@H]2C[C@H]1c1ccc(C(=O)O)cc1CCCCCCCCO2", "note": "[Ex. 41, (1^2R,1^4R)-1^1-((5-methoxy-7-methyl-1H-indol-4-yl)methyl)-11-oxa-1(2,4)-piperidina-2(1,2)-benzenacycloundecaphane-2^4-carboxylic acid]", "values": [{"measurement": "IC50", "setting": "CVF-Bb complex", "result": 129, "unit": "nM"}]}
{"smiles": "COc1cc(C)c2[nH]ccc2c1CN1CC[C@H]2C[C@H]1c1ccc(C(=O)NS(=O)(=O)C3CC3)cc1OCCCCCO2", "note": "[Ex. 60, (1^2S,1^4S)—N-(cyclopropylsulfonyl)-1^1-((5-methoxy-7-methyl-1H-indol-4-yl)methyl)-3,9-dioxa-1(2,4)-piperidina-2(1,2)-benzenacyclononaphane-2^4-carboxamide]", "values": [{"measurement": "IC50", "setting": "CVF-Bb complex; read-out: IC50", "result": 231, "unit": "nM"}]}
{"smiles": "COc1cc(C)c2[nH]ccc2c1CN1CC[C@H]2C[C@H]1c1ccc(C(=O)NO)cc1OCCCCCCO2", "note": "[Ex. 63, (1^2S,1^4S)—N-hydroxy-1^1-((5-methoxy-7-methyl-1H-indol-4-yl)methyl)-3,10-dioxa-1(2,4)-piperidina-2(1,2)-benzenacyclodecaphane-2^4-carboxamide]", "values": [{"measurement": "IC50", "setting": "CVF-Bb complex; read-out: IC50", "result": 2450, "unit": "nM"}]}
{"smiles": "Cc1cc2c(c3cc[nH]c13)CN1CC[C@@H](C[C@H]1c1ccc(C(=O)O)cc1)OCCCCCCCCCO2", "note": "(racemic) [Ex. 34, rac-4-((3^2R,3^4R)-1^7-methyl-11H-4,14-dioxa-1(4,5)-indola-3(1,4)-piperidinacyclotetradecaphane-3^2-yl)benzoic acid]", "values": [{"measurement": "IC50", "setting": "CVF-Bb complex", "result": "> 10000", "unit": "nM"}]}
{"smiles": "COc1cc(C)c2[nH]ccc2c1CN1CC[C@H]2C[C@H]1c1ccc(C(=O)O)cc1OCCCC/C=C\\CO2", "note": "[Ex. 10, (1^2S,1^4S,Z)-1^1-((5-methoxy-7-methyl-1H-indol-4-yl)methyl)-3,11-dioxa-1(2,4)-piperidina-2(1,2)-benzenacycloundecaphan-8-ene-2^4-carboxylic acid]", "values": [{"measurement": "IC50", "setting": "CVF-Bb complex; read-out: IC50", "result": 384, "unit": "nM"}]}
{"smiles": "C=CCCCOc1cc(Br)ccc1[C@@H]1C[C@@H](O)CCN1C(=O)OCc1ccccc1", "values": [{"measurement": "ring closure, isolated yield", "setting": "[1]; the molecule shown is the open-chain precursor, 13-membered ring, Grubbs I (5 mol%), 1.75 mM, 25.0 °C", "result": 76.4, "unit": "%"}]}
{"smiles": "COc1cc(C)c2[nH]ccc2c1CN1CC[C@H]2C[C@H]1c1ccc(C(=O)NS(C)(=O)=O)cc1/C=C\\CCCCCO2", "note": "[Ex. 68, (1^2S,1^4S,Z)-1^1-((5-methoxy-7-methyl-1H-indol-4-yl)methyl) —N-(methylsulfonyl)-10-oxa-1(2,4)-piperidina-2(1,2)-benzenacyclodecaphan-3-ene-24-carboxamide]", "values": [{"measurement": "IC50", "setting": "CVF-Bb complex; read-out: IC50", "result": 674, "unit": "nM"}]}
{"smiles": "COc1cc(C)c2[nH]ccc2c1CN1CC[C@H]2C[C@H]1c1ccc(C(=O)O)c3ccc(cc13)OCCC/C=C/CO2", "note": "[Ex. 48, (1^2S,1^4S,E)-1^1-((5-methoxy-7-methyl-1H-indol-4-yl)methyl)-3,10-dioxa-1(2,4)-piperidina-2(1,7)-naphthalenacyclodecaphan-7-ene-2^4-carboxylic acid]", "values": [{"measurement": "IC50", "setting": "CVF-Bb complex; read-out: IC50", "result": 83.7, "unit": "nM"}]}
{"smiles": "COc1cc(C)c2[nH]ccc2c1CN1CC[C@H]2C[C@H]1c1ccc(C(=O)O)cc1OCCCCCCCO2", "note": "[Ex. 7, (1^2S,1^4S)_1^1-((5-methoxy-7-methyl-1H-indol-4-yl)methyl)-3,11-dioxa-1(2,4)-piperidina-2(1,2)-benzenacycloundecaphane-2^4-carboxylic acid]", "values": [{"measurement": "IC50", "setting": "CVF-Bb complex; read-out: IC50", "result": 384, "unit": "nM"}]}
